Assay results published in ChEMBL document CHEMBL1146031, “N-acylated sulfonamide sodium salt: a prodrug of choice for the bifunctional 2-hydroxymethyl-4-(5-phenyl-3-trifluoromethyl-pyrazol-1-yl) benzenesulfonamide class of COX-2 inhibitors” (Bioorg Med Chem Lett, 2006).
Values joined by “and” are separate entries in the source; they are usually repeats but may differ in a detail not shown here. Identical values can stand only once. Active and inactive are the calls of the source. The rule behind the calls is not given here.

Experiments:
Rattus norvegicus [1] = assay: Anti-inflammatory activity in orally dosed Wistar rat assessed as reduction of carrageenan-induced paw edema; assay type: functional; conditions: po; for Inhibition: 30 mg/kg
Rattus norvegicus [2] = assay: Anti-inflammatory activity in orally dosed Wistar rat assessed as reduction of carrageenan-induced paw edema at 30 mg/kg, po; assay type: functional
[3] = target: T1, Prostaglandin G/H synthase 2 (Homo sapiens) (UniProt P35354); assay: Inhibition of human recombinant COX2 expressed in sf9 cells infected with baculovirus at 10 uM
T1 sequence (whole entry): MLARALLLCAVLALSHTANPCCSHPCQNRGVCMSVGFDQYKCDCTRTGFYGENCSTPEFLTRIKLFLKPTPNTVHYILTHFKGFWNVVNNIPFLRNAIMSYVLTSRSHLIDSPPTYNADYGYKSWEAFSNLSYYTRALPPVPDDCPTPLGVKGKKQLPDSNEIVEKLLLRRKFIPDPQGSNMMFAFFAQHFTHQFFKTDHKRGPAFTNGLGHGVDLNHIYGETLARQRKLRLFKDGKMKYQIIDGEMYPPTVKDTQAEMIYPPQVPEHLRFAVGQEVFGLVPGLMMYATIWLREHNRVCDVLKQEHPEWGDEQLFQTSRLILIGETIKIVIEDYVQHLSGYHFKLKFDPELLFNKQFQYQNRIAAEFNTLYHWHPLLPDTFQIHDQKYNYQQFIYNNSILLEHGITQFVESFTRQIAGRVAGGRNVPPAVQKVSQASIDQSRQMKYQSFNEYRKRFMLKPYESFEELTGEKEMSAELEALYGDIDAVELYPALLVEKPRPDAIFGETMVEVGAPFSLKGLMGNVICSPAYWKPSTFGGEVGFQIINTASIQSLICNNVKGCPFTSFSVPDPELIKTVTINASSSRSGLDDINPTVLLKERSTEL

[4] = target: Prostaglandin G/H synthase 1 (Ovis aries) (UniProt P05979); assay: Inhibition of microsomal COX1 at 10 uM
[5] = AUC in Wistar rat at 100 mg/kg, po; assay type: ADME, organism-based; parameters: dose 100 mg/kg, route oral; conditions: plasma
[6] = Cmax in Wistar rat at 100 mg/kg, po; assay type: ADME, organism-based; parameters: dose 100 mg/kg, route oral; conditions: in vivo
[7] = Tmax in Wistar rat at 100 mg/kg, po; assay type: ADME, organism-based; parameters: dose 100 mg/kg, route oral; conditions: in vivo
[8] = Terminal half life in Wistar rat at 100 mg/kg, po; assay type: ADME, organism-based; parameters: dose 100 mg/kg, route oral; conditions: in vivo
[9] = AUC (0-infinity) in Wistar rat at 100 mg/kg, po; assay type: ADME, organism-based; parameters: time infinity, dose 100 mg/kg, route oral; conditions: plasma
Rattus norvegicus [10] = assay: Anti-inflammatory activity in orally dosed Wistar rat assessed as reduction of carrageenan-induced paw edema at 1 mg/kg, po; assay type: functional, organism-based; parameters: dose 1 mg/kg
Rattus norvegicus [11] = assay: Anti-inflammatory activity in orally dosed Wistar rat assessed as reduction of carrageenan-induced paw edema at 10 mg/kg, po; assay type: functional, organism-based; parameters: dose 10 mg/kg
Rattus norvegicus [12] = assay: Anti-inflammatory activity in orally dosed Wistar rat assessed as reduction of carrageenan-induced paw edema at 3 mg/kg, po; assay type: functional, organism-based; parameters: dose 3 mg/kg
Rattus norvegicus [13] = assay: Anti-inflammatory activity in orally dosed Wistar rat assessed as reduction of carrageenan-induced paw edema at 0.3 mg/kg, po; assay type: functional

Sequence of Prostaglandin G/H synthase 1 (Ovis aries) (P05979 whole entry, looked up): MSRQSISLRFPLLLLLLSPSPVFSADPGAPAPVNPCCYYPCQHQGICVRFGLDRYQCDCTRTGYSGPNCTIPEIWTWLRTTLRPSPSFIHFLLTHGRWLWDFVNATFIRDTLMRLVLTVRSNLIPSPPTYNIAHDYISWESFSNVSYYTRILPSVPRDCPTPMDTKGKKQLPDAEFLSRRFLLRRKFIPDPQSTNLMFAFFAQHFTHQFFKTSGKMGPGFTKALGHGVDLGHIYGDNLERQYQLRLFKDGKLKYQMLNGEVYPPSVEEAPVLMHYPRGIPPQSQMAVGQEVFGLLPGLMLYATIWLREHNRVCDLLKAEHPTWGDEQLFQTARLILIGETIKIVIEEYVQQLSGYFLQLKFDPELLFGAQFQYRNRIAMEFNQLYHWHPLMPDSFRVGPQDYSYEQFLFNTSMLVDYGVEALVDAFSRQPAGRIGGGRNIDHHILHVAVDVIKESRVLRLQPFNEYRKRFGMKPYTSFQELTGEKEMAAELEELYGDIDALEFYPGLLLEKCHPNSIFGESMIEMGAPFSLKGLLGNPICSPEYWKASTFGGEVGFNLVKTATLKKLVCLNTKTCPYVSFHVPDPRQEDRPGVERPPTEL

Row | SMILES | ED50 (Rattus norvegicus [1]) [mg/kg] | inhibition at 30 mg/kg (Rattus norvegicus [2]) [%] | inhibition [3] | inhibition [4] | also measured
1 | NS(=O)(=O)c1ccc(-n2nc(C(F)(F)F)cc2-c2ccc3c(c2)CCC3)cc1CO | 23.5 |  |  |  | 
2 | CSc1ccc(-c2cc(C(F)(F)F)nn2-c2ccc(S(N)(=O)=O)c(CO)c2)cc1 |  | 47 |  |  | 
3 | CCC(=O)NS(=O)(=O)c1ccc(-n2nc(C(F)(F)F)cc2-c2ccc3c(c2)CCO3)cc1COC(=O)CC [listing 1 of 2 here] |  | 25 |  |  | 
4 | CCC(=O)OCc1cc(-n2nc(C(F)(F)F)cc2-c2ccc3c(c2)CCO3)ccc1S(N)(=O)=O | 8.5 |  | 61% | 0% | 
5 | CCC(=O)[N-]S(=O)(=O)c1ccc(-n2nc(C(F)F)cc2-c2ccc(Br)cc2)cc1CO.[Na+] | 5.6 |  | 14% | 0% | AUC [5]: 289 µg·h/mL; Cmax [6]: 28400 ng/mL; Tmax [7]: 2.85 h; half-life [8]: 7.42 h; AUC(0-inf) [9]: 321 µg·h/mL
6 | CCC(=O)[N-]S(=O)(=O)c1ccc(-n2nc(C(F)F)cc2-c2ccc(OC)c(C)c2)cc1CO.[Na+] | 6.3 |  | 13% | 0% | AUC [5]: 106 µg·h/mL; Cmax [6]: 7540 ng/mL; Tmax [7]: 2.82 h; half-life [8]: 5.92 h; AUC(0-inf) [9]: 114 µg·h/mL
7 | CCC(=O)[N-]S(=O)(=O)c1ccc(-n2nc(C(F)(F)F)cc2-c2ccc(SC)cc2)cc1CO.[Na+] |  | 36 | 21% | 0% | 
8 | CCC(=O)NS(=O)(=O)c1ccc(-n2nc(C(F)(F)F)cc2-c2ccc(OC)c(C)c2)cc1COC(=O)CC [listing 1 of 2 here] |  | 48 |  |  | 
9 | NS(=O)(=O)c1ccc(-n2nc(C(F)(F)F)cc2-c2ccc3c(c2)CCO3)cc1CO | 22.3 |  |  |  | 
10 | CCC(=O)[N-]S(=O)(=O)c1ccc(-n2nc(C(F)(F)F)cc2-c2ccc(Br)cc2)cc1COC(=O)CC.[Na+] | 12.5 |  |  |  | 
11 | CCC(=O)NS(=O)(=O)c1ccc(-n2nc(C(F)(F)F)cc2-c2ccc(SC)cc2)cc1COC(=O)CC [listing 1 of 2 here] |  | 38 |  |  | 
12 | CCC(=O)[N-]S(=O)(=O)c1ccc(-n2nc(C(F)(F)F)cc2-c2ccc3c(c2)CCC3)cc1COC(=O)CC.[Na+] |  | 41 |  |  | 
13 | NS(=O)(=O)c1ccc(-n2nc(C(F)(F)F)cc2-c2ccc(Br)cc2)cc1CO |  | 35 |  |  | 
14 | CCC(=O)[N-]S(=O)(=O)c1ccc(-n2nc(C(F)(F)F)cc2-c2ccc(OC)c(C)c2)cc1COC(=O)CC.[Na+] |  | 34 |  |  | 
15 | CCC(=O)[N-]S(=O)(=O)c1ccc(-n2nc(C(F)(F)F)cc2-c2ccc3c(c2)CCO3)cc1COC(=O)CC.[Na+] |  | 43 |  |  | 
16 | CCC(=O)[N-]S(=O)(=O)c1ccc(-n2nc(C(F)(F)F)cc2-c2ccc(OC)c(C)c2)cc1CO.[Na+] | 6.2 |  | 15% | 0% | AUC [5]: 125 µg·h/mL; Cmax [6]: 9320 ng/mL; Tmax [7]: 3.78 h; half-life [8]: 6.82 h; AUC(0-inf) [9]: 149 µg·h/mL
17 | CCC(=O)[N-]S(=O)(=O)c1ccc(-n2nc(C(F)F)cc2-c2ccc(Br)cc2)cc1COC(=O)CC.[Na+] | 7.9 |  |  |  | 
18 | COc1ccc(-c2cc(C(F)(F)F)nn2-c2ccc(S(N)(=O)=O)c(CO)c2)cc1C | 21.7 |  |  |  | AUC [5]: 73.7 µg·h/mL; Cmax [6]: 6370 ng/mL; Tmax [7]: 3.5 h; half-life [8]: 6.63 h; AUC(0-inf) [9]: 112 µg·h/mL
19 | CCC(=O)NS(=O)(=O)c1ccc(-n2nc(C(F)F)cc2-c2ccc(Br)cc2)cc1COC(=O)CC [listing 1 of 2 here] |  | 45 |  |  | 
20 | CCC(=O)NS(=O)(=O)c1ccc(-n2nc(C(F)(F)F)cc2-c2ccc3c(c2)CCC3)cc1COC(=O)CC [listing 1 of 2 here] |  |  |  | 0% | Activity (Rattus norvegicus [10]): inactive; Activity (Rattus norvegicus [11]): inactive; Activity (Rattus norvegicus [12]): inactive
21 | CCC(=O)NS(=O)(=O)c1ccc(-n2nc(C(F)(F)F)cc2-c2ccc3c(c2)CCC3)cc1COC(=O)CC [listing 2 of 2 here] |  |  |  |  | Inhibition (Rattus norvegicus [1]): 64%
22 | CCC(=O)NS(=O)(=O)c1ccc(-n2nc(C(F)(F)F)cc2-c2ccc(SC)cc2)cc1COC(=O)CC [listing 2 of 2 here] |  |  | 18% and 25% | 0% | 
23 | COc1ccc(-c2cc(C(F)F)nn2-c2ccc(S(N)(=O)=O)c(CO)c2)cc1C | 18.5 |  |  |  | AUC [5]: 2.4 µg·h/mL; Cmax [6]: 700 ng/mL; Tmax [7]: 2.25 h

Row | SMILES | ED50 (Rattus norvegicus [1]) [mg/kg] | inhibition at 30 mg/kg (Rattus norvegicus [2]) [%] | inhibition [3] | inhibition [4] | also measured
24 | CCC(=O)NS(=O)(=O)c1ccc(-n2nc(C(F)F)cc2-c2ccc(Br)cc2)cc1COC(=O)CC [listing 2 of 2 here] |  |  | 12% and 25% | 0% and 1% | 
25 | CCC(=O)[N-]S(=O)(=O)c1ccc(-n2nc(C(F)F)cc2-c2ccc(OC)c(C)c2)cc1COC(=O)CC.[Na+] |  | 32 |  |  | 
26 | CCC(=O)[N-]S(=O)(=O)c1ccc(-n2nc(C(F)(F)F)cc2-c2ccc(Br)cc2)cc1CO.[Na+] | 7.2 |  | 23% | 0% | 
27 | CCC(=O)NS(=O)(=O)c1ccc(-n2nc(C(F)F)cc2-c2ccc(OC)c(C)c2)cc1COC(=O)CC [listing 1 of 2 here] |  |  |  | 0% | 
28 | CCC(=O)OCc1cc(-n2nc(C(F)(F)F)cc2-c2ccc3c(c2)CCC3)ccc1S(N)(=O)=O |  | 30 | 57% | 0% | 
29 | CCC(=O)[N-]S(=O)(=O)c1ccc(-n2nc(C(F)(F)F)cc2-c2ccc3c(c2)CCC3)cc1CO.[Na+] |  |  | 22% | 0% | Inhibition (Rattus norvegicus [1]): 52%; Activity (Rattus norvegicus [10]): inactive; Activity (Rattus norvegicus [11]): inactive; Activity (Rattus norvegicus [12]): inactive
30 | CCC(=O)[N-]S(=O)(=O)c1ccc(-c2c(-c3ccccc3)noc2C)cc1.[Na+] [PARECOXIB SODIUM] |  |  |  |  | inhibition at 0.3 mg/kg (Rattus norvegicus [13]): 98%
31 | CCC(=O)NS(=O)(=O)c1ccc(-n2nc(C(F)(F)F)cc2-c2ccc(Br)cc2)cc1COC(=O)CC [listing 1 of 2 here] |  | 37 |  |  | 
32 | CCC(=O)NS(=O)(=O)c1ccc(-n2nc(C(F)(F)F)cc2-c2ccc(OC)c(C)c2)cc1COC(=O)CC [listing 2 of 2 here] |  |  | 10% and 5% | 0% | 
33 | CCC(=O)OCc1cc(-n2nc(C(F)F)cc2-c2ccc(Br)cc2)ccc1S(N)(=O)=O |  | 40 | 55% | 5% | 
34 | CCC(=O)OCc1cc(-n2nc(C(F)(F)F)cc2-c2ccc(OC)c(C)c2)ccc1S(N)(=O)=O | 10.9 |  |  | 12% | 
35 | CCC(=O)NS(=O)(=O)c1ccc(-n2nc(C(F)F)cc2-c2ccc(OC)c(C)c2)cc1COC(=O)CC [listing 2 of 2 here] |  | 42 |  |  | 
36 | CCC(=O)OCc1cc(-n2nc(C(F)F)cc2-c2ccc(OC)c(C)c2)ccc1S(N)(=O)=O | 15 |  | 75% | 0% | 
37 | CCC(=O)[N-]S(=O)(=O)c1ccc(-n2nc(C(F)(F)F)cc2-c2ccc(SC)cc2)cc1COC(=O)CC.[Na+] |  | 40 |  |  | 
38 | CCC(=O)NS(=O)(=O)c1ccc(-n2nc(C(F)(F)F)cc2-c2ccc(Br)cc2)cc1COC(=O)CC [listing 2 of 2 here] |  |  | 25% and 35% | 0% | 
39 | CCC(=O)OCc1cc(-n2nc(C(F)(F)F)cc2-c2ccc(SC)cc2)ccc1S(N)(=O)=O |  |  | 40% | 0% | Inhibition (Rattus norvegicus [1]): 60%; Activity (Rattus norvegicus [10]): inactive; Activity (Rattus norvegicus [11]): inactive; Activity (Rattus norvegicus [12]): inactive
40 | CCC(=O)OCc1cc(-n2nc(C(F)(F)F)cc2-c2ccc(Br)cc2)ccc1S(N)(=O)=O | 17 |  | 65% | 0% | 
41 | CCCC(=O)[N-]S(=O)(=O)c1ccc(-n2nc(C(F)(F)F)cc2-c2ccc(C)cc2)cc1.[Na+] | 6.64 |  | 2% | 0% | 
42 | CCC(=O)[N-]S(=O)(=O)c1ccc(-n2nc(C(F)(F)F)cc2-c2ccc3c(c2)CCO3)cc1CO.[Na+] | 7.5 |  | 25% | 5% | 
43 | Cc1ccc(-c2cc(C(F)(F)F)nn2-c2ccc(S(N)(=O)=O)cc2)cc1 [CELECOXIB] | 6.7 |  |  |  | 
44 | NS(=O)(=O)c1ccc(-n2nc(C(F)F)cc2-c2ccc(Br)cc2)cc1CO |  | 42 |  |  | AUC [5]: 239 µg·h/mL; Cmax [6]: 20800 ng/mL; Tmax [7]: 2.67 h; half-life [8]: 7.51 h; AUC(0-inf) [9]: 265 µg·h/mL
45 | CCC(=O)NS(=O)(=O)c1ccc(-n2nc(C(F)(F)F)cc2-c2ccc3c(c2)CCO3)cc1COC(=O)CC [listing 2 of 2 here] |  |  | 2% and 12% | 0% | 
